Assay results reported in PubChem BioAssay (NCI).
Values joined by “and” are separate entries in the source; they are usually repeats but may differ in a detail not shown here. Equal entries are not always repeated.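 1) Cells in 96-well plates. 2) Compound, 48 h, 5 concentrations. 3) Linear interpolation between surrounding doses. 4) Unreached endpoint = highest concentration. At the GI50, growth is halved. The concentration for full growth arrest is given as TGI.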

Each compound was assayed on NCI-H226 lung (assay: NCI tumour cell line growth inhibition, 48 h).

Row | Compound | TGI [µM] | GI50 [µM]
1 | CC/C(C)=C1\CCC(CN2CCOCC2)C1=O (stereo unspecified) | > 100 | –
2 | COC(=O)C1C(C(=O)OC)C2(OC)c3ccccc3-c3ccccc3C12 (stereo unspecified) | > 100 | –
3 | O=C1OC(CC(=O)c2ccc(Cl)c(Cl)c2)C(Cl)=C1Cl (stereo unspecified) | > 100 | –
4 | CC(=O)c1cccc(N2COC(C)(C)c3nc4ccccc4n3C2)c1 | > 100 | –
5 | Cc1c[nH]c2c(O)cc3c(c12)[C@H](CCl)CN3C(=O)c1cc2cc(NC(=O)Nc3ccc4[nH]c(C(=O)N5C[C@@H](CCl)c6c5cc(O)c5[nH]cc(C)c65)cc4c3)ccc2[nH]1 | 15.9 | –
6 | O=S(=O)(N/N=C/c1ccc(/C=N/NS(=O)(=O)c2ccccc2)cc1)c1ccccc1 | > 100 | –
7 | CC[C@@H]1OC2(C)CC(S(=O)(=O)c3ccccc3O)CC1O2 (stereo partly specified) | > 100 | –
8 | CCOC(=O)C(N)C[S][Sn]([CH3])([CH3])[Cl] (stereo unspecified) | > 100 | > 100
9 | NNC(=O)/C(=C/c1ccc(Cl)c(Cl)c1)NC(=O)c1ccccc1 | > 100 | –
10 | CC(=O)OCC1OC(N2C(=O)C(=O)c3cc(C)ccc32)C(OC(C)=O)C(OC(C)=O)C1OC(C)=O (stereo unspecified) | > 100 | –
11 | Nc1ccc(N(S(=O)(=O)c2ccccc2)S(=O)(=O)c2ccccc2)c(Cl)c1 | > 100 | –
12 | CCCCc1c2c(nc3c1CCC/C3=C\c1ccccc1)C(=O)CCC2 | 45.3 | –
13 | COc1ccc([N+]2=NC(c3ccc([N+](=O)[O-])cc3)=NN(c3ccccc3)C2)cc1 | > 100 | –
14 | C=CC1(C(=O)O)CCC(C(C)(C)C)CC1 (stereo unspecified) | > 100 | –
15 | CC(C)(C#N)c1cc(Cn2cncn2)cc(C(C)(C)C#N)c1 | > 10000 | 718
16 | O=C(Nc1cc(Cl)c(Cl)cc1Cl)C(=O)C1C=CCS1(=O)=O (stereo unspecified) | > 100 | –
17 | CCNC(=O)CCN(C(=O)O)S(=O)(=O)c1ccc(NC(=O)c2ccccc2)cc1 | > 100 | –
18 | CC1C[C@@]2(c3ccccc3)C(=O)CCC[C@H]2N1 (stereo partly specified) | > 100 | –
19 | CC1=C(C(=O)Nc2ccccc2C)C(c2ccc(Cl)c(Cl)c2)C(C(=O)Nc2ccccc2C)=C(C)N1 | 43.8 | –
20 | CCCCOC(=O)NC(=O)c1cn(CCCOC(=O)CCCCCCCCC(=O)OCCCn2cc(C(=O)NC(=O)OCCCC)c(=O)[nH]c2=O)c(=O)[nH]c1=O | > 100 | –
21 | Cc1[nH]c2ccccc2c1C1Cc2ccccc2N1C(=O)/C=C\C(=O)O (stereo unspecified) | > 100 | –
22 | CCOC(=O)c1cc(C#N)c(=O)n(/N=C(\C)c2ccncc2)c1O | > 100 | > 100

These compounds were tested on HOP-92 NSCLC (assay: NCI tumour cell line growth inhibition, 48 h).

Row | Compound | GI50 [µM] | TGI
23 | COc1cc2c(cc1OCCCOc1cc3c(cc1OC)C(=O)N1C[C@H](F)C[C@H]1C=N3)N=C[C@@H]1C[C@@H](F)CN1C2=O | 5.18 | 18 µM
24 | c1ccc2c(c1)CCC/C2=N\OCC1CO1 (stereo unspecified) | – | > 100 µM
25 | CC/C(C)=C1\CCC(CN2CCOCC2)C1=O (stereo unspecified) | – | 32.4 µM
26 | COC(=O)C1C(C(=O)OC)C2(OC)c3ccccc3-c3ccccc3C12 (stereo unspecified) | – | > 100 µM
27 | CC(=O)c1cccc(N2COC(C)(C)c3nc4ccccc4n3C2)c1 | – | > 100 µM
28 | O=[N+]([O-])c1cccc(C2N3CCCCC3[C@@H]3c4[nH]c5ccccc5c4CCN23)c1 (stereo partly specified) | – | 36.2 µM
29 | Cc1c[nH]c2c(O)cc3c(c12)[C@H](CCl)CN3C(=O)c1cc2cc(NC(=O)Nc3ccc4[nH]c(C(=O)N5C[C@@H](CCl)c6c5cc(O)c5[nH]cc(C)c65)cc4c3)ccc2[nH]1 | – | > 100 µM and 0.00813 µg/mL
30 | CCOC(=O)NC(=O)c1cn(CC(=O)NCC(=O)NCC(=O)NCCCN2CCN(CCCNC(=O)CNC(=O)CNC(=O)Cn3cc(C(=O)NC(=O)OCC)c(=O)[nH]c3=O)CC2)c(=O)[nH]c1=O | – | > 100 µM
31 | O=S(=O)(N/N=C/c1ccc(/C=N/NS(=O)(=O)c2ccccc2)cc1)c1ccccc1 | – | 64.8 µM
32 | CC[C@@H]1OC2(C)CC(S(=O)(=O)c3ccccc3O)CC1O2 (stereo partly specified) | – | > 100 µM
33 | CCOC(=O)C(N)C[S][Sn]([CH3])([CH3])[Cl] (stereo unspecified) | > 100 | > 100 µM
34 | NNC(=O)/C(=C/c1ccc(Cl)c(Cl)c1)NC(=O)c1ccccc1 | – | > 100 µM
35 | CC(=O)OCC1OC(N2C(=O)C(=O)c3cc(C)ccc32)C(OC(C)=O)C(OC(C)=O)C1OC(C)=O (stereo unspecified) | – | > 100 µM
36 | O=C1c2ccccc2-c2cccc3ccc(Cc4ccc5ccccc5c4)c1c23 | – | > 100 µM
37 | COc1cc(Cl)c2c3c(c(C(C)=O)oc13)CCC2 | – | > 100 µM
38 | Nc1ccc(N(S(=O)(=O)c2ccccc2)S(=O)(=O)c2ccccc2)c(Cl)c1 | – | > 100 µM
39 | CCCCc1c2c(nc3c1CCC/C3=C\c1ccccc1)C(=O)CCC2 | – | 58.7 µM
40 | C=CC1(C(=O)O)CCC(C(C)(C)C)CC1 (stereo unspecified) | – | > 100 µM
41 | NC(=O)C(=Cc1ccc(C(O)P(=O)(O)O)cc1)C(N)=O (stereo unspecified) | – | > 100 µM
42 | CC(C)(C#N)c1cc(Cn2cncn2)cc(C(C)(C)C#N)c1 | 297 | 2980 µM
43 | O=C(Nc1cc(Cl)c(Cl)cc1Cl)C(=O)C1C=CCS1(=O)=O (stereo unspecified) | – | > 100 µM
44 | CCNC(=O)CCN(C(=O)O)S(=O)(=O)c1ccc(NC(=O)c2ccccc2)cc1 | – | > 100 µM
45 | O=C(/C=C/c1ccc([N+](=O)[O-])o1)N1CCN(Cc2ccccc2)CC1 | – | 27.8 µM
46 | CC1C[C@@]2(c3ccccc3)C(=O)CCC[C@H]2N1 (stereo partly specified) | – | > 100 µM
47 | O=[N+]([O-])c1cccc(/C=N\NS(=O)(=O)c2ccc(Cl)cc2)c1O | – | > 100 µM
48 | CC1=C(C(=O)Nc2ccccc2C)C(c2ccc(Cl)c(Cl)c2)C(C(=O)Nc2ccccc2C)=C(C)N1 | – | 33.4 µM
49 | CCCCOC(=O)NC(=O)c1cn(CCCOC(=O)CCCCCCCCC(=O)OCCCn2cc(C(=O)NC(=O)OCCCC)c(=O)[nH]c2=O)c(=O)[nH]c1=O | – | > 100 µM
50 | Cc1[nH]c2ccccc2c1C1Cc2ccccc2N1C(=O)/C=C\C(=O)O (stereo unspecified) | – | 76.6 µM
51 | CCOC(=O)c1cc(C#N)c(=O)n(/N=C(\C)c2ccncc2)c1O | > 100 | > 100 µM

These compounds were tested on EKVX NSCLC (assay: NCI tumour cell line growth inhibition, 48 h).

Row | Compound | GI50 [µM] | TGI
52 | COc1cc2c(cc1OCCCOc1cc3c(cc1OC)C(=O)N1C[C@H](F)C[C@H]1C=N3)N=C[C@@H]1C[C@@H](F)CN1C2=O | 18.7 | 35.5 µM
53 | c1ccc2c(c1)CCC/C2=N\OCC1CO1 (stereo unspecified) | – | > 100 µM
54 | CC/C(C)=C1\CCC(CN2CCOCC2)C1=O (stereo unspecified) | – | 34 µM
55 | COC(=O)C1C(C(=O)OC)C2(OC)c3ccccc3-c3ccccc3C12 (stereo unspecified) | – | > 100 µM
56 | O=C1OC(CC(=O)c2ccc(Cl)c(Cl)c2)C(Cl)=C1Cl (stereo unspecified) | – | > 100 µM
57 | CC(=O)c1cccc(N2COC(C)(C)c3nc4ccccc4n3C2)c1 | – | > 100 µM
58 | O=[N+]([O-])c1cccc(C2N3CCCCC3[C@@H]3c4[nH]c5ccccc5c4CCN23)c1 (stereo partly specified) | – | 69.9 µM
59 | Cc1c[nH]c2c(O)cc3c(c12)[C@H](CCl)CN3C(=O)c1cc2cc(NC(=O)Nc3ccc4[nH]c(C(=O)N5C[C@@H](CCl)c6c5cc(O)c5[nH]cc(C)c65)cc4c3)ccc2[nH]1 | – | 7.21 nM and > 100 µM and 9.5e-07 µg/mL
60 | O=S(=O)(N/N=C/c1ccc(/C=N/NS(=O)(=O)c2ccccc2)cc1)c1ccccc1 | – | > 100 µM
61 | CC[C@@H]1OC2(C)CC(S(=O)(=O)c3ccccc3O)CC1O2 (stereo partly specified) | – | > 100 µM
62 | CCOC(=O)C(N)C[S][Sn]([CH3])([CH3])[Cl] (stereo unspecified) | > 100 | > 100 µM
